pEC50, pIC50: −log10 of the molar value.
Legend:
[1] = test system: NF-κB; assay: 293/NFkB-luc reporter cell assay (TNF-α induced luciferase expression); type: cell-based; details: 293/NFkB-luc, 293 cells, pNF-κB-luc reporter, 2 h pretreatment, 20 ng/ml TNF-α 18 h
Method: (§1) Two reporter cell assays were used to determine the ability of the compound of Example 10 to inhibit NF-κB driven transcription. The first assay was a 293-cell based assay with a stably integrated pNF-κB-luc reporter plasmid containing 3 NF-κB promoter elements. The second assay was a 293-cell based assay with a stably integrated pTRH1-NF-κB-dscGFP reporter containing 4 NF-κB promoter elements. Cells were treated with 0, 0.2, 1, 10, 20 and 40 μM of the compound of Example 10 for 2 hours then were induced with 20 ng/ml TNF-α for 18 hours. Following the induction, luminescence or fluorescence was quantified using a Beckman-Coulter 2300 plate reader. […] These values represent the median value generated from three independent experiments. As a control, 0.5% DMSO treated and untreated cells were compared to verify that the compound of Example 10 had no effect on the expression of luciferase or in the readout of the assay. There was a slight decrease in the output from the assay in the DMSO treated population although it was not statistically significant. As a result of the controls, the decrease in activity in the drug treated samples was compared to the DMSO control sample.

[2] = test system: NF-κB; assay: NF-κB/293/GFP reporter cell assay (TNF-α induced GFP expression); type: cell-based; details: Homo sapiens, HEK293, 293 cells, pTRH1-NF-κB-dscGFP reporter, 2 h pretreatment, 20 ng/ml TNF-α 18 h; read-out: NF-KB/293/GFP EC50
Method: as §1

[3] = test system: IL-6 release from RAW264.7 cells; assay: LPS-stimulated IL-6 release from RAW264.7 cells (ELISA); type: cell-based, mouse; details: Mus musculus, RAW264.7, RAW264.7 cells, 2 h pretreatment, 1 μg/mL LPS 20-24 h; read-out: RAW 264.7 IL-6 release EC50
Method: RAW 264.7 cells were seeded at 4×10^4 cells per well n complete growth medium in 96 well white TC plates with clear bottoms one day prior to the assay. The next day the cells were washed once and 100 μL fresh growth media was added. Cells were pretreated with 0.5 μL from a 6 point 200× dilution series of the test compounds in DMSO for 2 hours. Following pretreatment with the drugs, the inflammatory response was induced by adding 5 μL of a 20 μg/mL solution of LPS (Sigma). The cells were incubated in the presence of the drugs and 1 μg/mL LPS for another 20-24 hours. Typically after treatment the total DMSO was […] of the culture volume and the final concentrations of the compounds were approximately: 40, 20, 10, 1, 0.2 and 0 μM depending on the MW of each compound. Modified dilution series were prepared as needed to get adequate dose response curves without changing the % DMSO. Samples were run in duplicate or triplicate and included DMSO treated control wells with and without LPS stimulation. Drugs with a known activity such as Parthenolide or DHMEQ were run as experimental controls. After 20-24 hours LPS activation, the media supernatant was collected from the cells and replaced with fresh media. The supernatant samples were cleared by centrifugation at 1,000×g for 5 minutes, transferred to fresh storage plates, and stored frozen at −30° C.
After determining the appropriate supernatant dilutions experimentally, mIL-6 levels in the supernatants were quantified using Quantikine™ mouse IL-6 immunoassay (R&D Systems) according to the manufacturer's protocol. […] diluted in Calibrator Diluent were added to 50 μL of Assay Diluent in microplate wells pre-coated with an anti-mouse IL-6 capture antibody. Controls included a calibrated positive IL-6 control sample, non-specific binding (NSB) wells containing Calibrator Diluent but no IL-6, and a recombinant mouse IL-6 standard dilution series (10-1000 pg/mL). The plates were incubated at room temperature for 2 hours with shaking and then washed 5 times with 400 μL 1× Wash Buffer. […] anti-mouse IL-6 antibody was added to each well to detect IL-6 captured on the plate. The plates were incubated at room temperature for 2 hours and then washed 5 times with 400 μL 1× Wash Buffer. Equal volumes of Color Reagents A and B were mixed and 100 μL of this HRP Substrate Solution was added to each well on the plate. The blue color was allowed to develop for 30 minutes and then the reaction was stopped using 100 μL of Stop Solution yielding a yellow color. Absorbance at 450 nm with a reference wavelength subtracted at 595 nm was recorded using a Becton-Dickinson DTX 880 Multimode Detector.
The concentration of mIL-6 in the unknown samples was determined from a curve-fit of the mIL-6 standard absorbance data and multiplying by the dilution factor. The maximum activity achieved in the absence of the inhibitor (DMSO+LPS treated wells) was arbitrarily given a value of 100%; likewise the minimum activity in the absence of the stimulant (no LPS) was assigned a value of 0%. Inhibition of the amount of mIL-6 cytokine released in the drug treated wells was calculated relative to the maximum activation in the DMSO+LPS treated control wells (ie. % inhibition=100−(drug+LPS treated)/(DMSO+LPS treated)). Dose response curves were used to determine the effective concentration to inhibit 50% of the mIL-6 cytokine released (IC50) by means of a SigmaPlot macro which fits a sigmoidal dose-response curve to the (log 10) μM concentration versus % inhibition. […] This technique yields an objective value for the IC50 provided that 50% inhibition was approached at the concentrations tested. FIG. 5 illustrates the effect of the compound of Example 10 on inhibiting IL-6 release.

[4] = molecular target: T1, p65 (RelA) (Homo sapiens, UniProt Q04206); assay: TransAM NF-κB family DNA binding ELISA, p65; type: biochemical; details: binding to NF-κB consensus oligonucleotide
T1 construct: purchased Active Motif
T1 sequence (Q04206 whole entry): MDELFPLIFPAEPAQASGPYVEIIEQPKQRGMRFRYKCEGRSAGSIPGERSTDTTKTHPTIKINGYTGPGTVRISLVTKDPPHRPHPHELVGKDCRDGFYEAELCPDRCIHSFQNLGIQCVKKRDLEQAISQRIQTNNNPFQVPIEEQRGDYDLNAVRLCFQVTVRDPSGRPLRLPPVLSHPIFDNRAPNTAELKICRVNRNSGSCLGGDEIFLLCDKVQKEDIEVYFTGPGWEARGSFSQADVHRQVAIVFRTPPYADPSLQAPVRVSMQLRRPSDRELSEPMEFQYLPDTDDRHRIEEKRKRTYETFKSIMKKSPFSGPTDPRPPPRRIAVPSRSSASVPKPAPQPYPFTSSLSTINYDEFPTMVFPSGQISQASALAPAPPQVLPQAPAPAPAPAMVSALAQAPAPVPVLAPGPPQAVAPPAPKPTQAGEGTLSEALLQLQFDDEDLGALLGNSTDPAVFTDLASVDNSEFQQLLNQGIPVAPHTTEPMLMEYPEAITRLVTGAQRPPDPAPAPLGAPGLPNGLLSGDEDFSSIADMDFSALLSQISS
Method: The binding activity of NF-κB heterodimer or homodimer subunits from activated nuclear extracts or purified recombinant NF-κB proteins exposed to the drug compounds was evaluated using the TransAM NF-κB Family binding ELISA (Active Motif). 3-5 μg of nuclear extracts from TNFα activated Hela or Raji cells (Active Motif) or 20 ng of purified recombinant proteins (p65 and p50 from Active Motif, p52 from Santa Cruz) were incubated for 1 hour at room temperature with 20 μL drug compounds diluted in Complete Lysis buffer without DTT. Treated samples were then transferred to 30 μL Complete Binding Buffer (with DTT) in microplate wells pre-coated with the NF-κB consensus oligonucleotide. […] The plate was incubated for 1 hour at room temperature with gentle shaking and then washed 3 times with 200 μL 1× Wash Buffer. NF-κB p65, p50, p52, RelB, or c-Rel subunits bound to the plate were detected with 100 μL of the primary antibody (diluted 1:1000 in 1× Antibody Buffer) specific for that subunit. The plate was incubated for 1 hour at room temperature and then washed 3 times with 200 μL 1× Wash Buffer. Next, 100 μL of a HRP conjugated goat anti-rabbit antibody (diluted 1:1,000 in 1× Antibody Buffer) was added to each well. The plate was incubated for 1 hour at room temperature and then washed 4 times with 200 μL 1× Wash Buffer. 100 μL of room temperature Developing Solution was added to each well. The reaction was allowed to develop for 2-10 minutes until a medium dark blue color developed (depending on the subunit activity in the lot of extract or lot of recombinant protein used) and then the reaction was stopped with 100 μL Stop Solution yielding a yellow color. Absorbance was recorded using a Becton-Dickinson DTX 880 Multimode Detector at 450 nm with a reference wavelength subtracted at 620 nm. FIGS. 2, 3 and 4 illustrate the effect of Example 10 on inhibiting RelA, RelB and c-Rel binding to NF-κB sites.

| pEC50 [1] | pEC50 [2] | pEC50 [3] | pIC50 [4] | SMILES |
| --- | --- | --- | --- | --- |
| 5.66 | 5.44 | 6.85 | 5.01 | O=C(NC1=CC(=O)C2OC2C1=O)c1c(O)ccc2ccccc12 (racemic) [Example 12, (±)-N-(2,5-dioxo-7-oxabicyclo[4.1.0]hept-3-en-3-yl)-2-hydroxy-1-naphthamide] |
| 4.68 | 5.04 | 5.77 | 5.06 | Cc1cc(Br)cc(C(=O)NC2=CC(=O)C3OC3C2O)c1O (racemic) [Example 13, (±)-5-bromo-2-hydroxy-N-(2-hydroxy-5-oxo-7-oxabicyclo[4.1.0]hept-3-en-3-yl)-3-methylbenzamide] |
| 5.54 | 5.44 | 6.60 | 5.28 | Cc1cc(Br)cc(C(=O)NC2=CC(=O)C3OC3C2=O)c1O (racemic) [Example 14, (±)-5-bromo-N-(2,5-dioxo-7-oxabicyclo[4.1.0]hept-3-en-3-yl)-2-hydroxy-3-methylbenzamide] |
| 5.68 | 5.51 | 6.24 | 4.59 | CN(C)c1ccc(C(=O)NC2=CC(=O)C3OC3C2=O)c(O)c1 (racemic) [Example 18, (±)-4-(dimethylamino)-N-(2,5-dioxo-7-oxabicyclo[4.1.0]hept-3-en-3-yl)-2-hydroxybenzamide] |

Source: US20120046357A1, “Benzamide and Napthamide Derivatives Inhibiting Nuclear Factor-Kappa (B) - (NK-kB)” (Profectus Biosciences, Inc., priority 2009, published 2012)
